Assay results published in ChEMBL document CHEMBL1201862, “PubChem BioAssay data set” (2004).
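Cultured in 96-well plates, cells were exposed to test compound for 48 hours across five concentrations. GI50 = concentration required for 50% inhibition of growth.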 Active and inactive are the calls of the source. No stated cut-off is given here; in the data, active = GI50 up to about 1.1 µM and inactive = higher.

Tests used:
Assay in all cases: inhibition of tumour cell growth, NCI panel, 48 h
DMS-114 = tested on: DMS-114
MDA-MB-231 = tested on: MDA-MB-231
Hs-578T = tested on: Hs-578T
BT-549 = tested on: BT-549
T47D = tested on: T47D
LXFL 529 = tested on: LXFL 529
SR = tested on: SR
RXF 631 = tested on: RXF 631

Compound | GI50 (DMS-114) | GI50 (MDA-MB-231) | GI50 (Hs-578T) | GI50 (BT-549) | GI50 (T47D) | GI50 (LXFL 529) | GI50 (SR) | GI50 (RXF 631)
CC(=O)Oc1c(OC(C)=O)c(-c2ccc(O)c(O)c2)c(O)c(O)c1-c1ccc(O)cc1 | 21.3 µM (inactive) |  |  |  |  |  |  | 
COc1nc(Cl)nc(N[C@H](C)c2c3ccccc3cc3ccccc23)n1 |  | 13.9 µM (inactive) | 7.69 µM (inactive) | 18 µM (inactive) | 1.99 µM (inactive) |  |  | 
O=C(O)CC/C(=N\Nc1nsc2ccccc12)c1ccccc1 | 25.5 µM (inactive) |  |  |  |  | 42.5 µM (inactive) | 24.9 µM (inactive) | 
Cc1cccc2sc(-c3ccc(O)cc3)nc12 |  | 19.8 µM (inactive) |  | 11.8 µM (inactive) |  |  | 22 µM (inactive) | 
O=c1cnn(C/C=C/CP(=O)(O)O)c(=O)[nH]1 |  | > 100 µM (inactive) | > 100 µM (inactive) | > 100 µM (inactive) | > 100 µM (inactive) |  | > 100 µM (inactive) | 
O=C(Nc1ccc(I)cc1C(=O)NCCO)c1cccs1 |  |  |  | > 100 µM (inactive) |  |  | 49.7 µM (inactive) | 
Nc1nc(N)nc(-c2ccccc2NS(=O)(=O)c2ccc([N+](=O)[O-])cc2)n1 | 25.8 µM (inactive) |  |  |  |  |  |  | 
CCOC(=O)C(C)OC(=O)c1ccc(C)cc1 (stereo not drawn) | > 100 µM (inactive) |  |  |  |  | > 100 µM (inactive) | > 100 µM (inactive) | > 100 µM (inactive)
